Patent US20110172184A1, “ANTITUMOR AGENT CONTAINING 4 - [[3,5 - BIS ([…]) BENZOYL] AMINO] BENZOIC ACID” (TAIHO PHARMACEUTICAL CO., LTD., priority 2008, published 2011)

System: human liver cancer cell line JHH-7
Assay: Antitumor effect (tumor weight T/C) on human liver cancer cell line JHH-7 transplanted into the left lateral liver lobe of nude mice
Assay type: in vivo, mouse
Conditions: tumor weight on 15th day
Description: Sorafenib was weighed at every time of use, and a liquid for administration was prepared. […] BALE/cA Jcl-nu male nude mice (Clea Japan, Inc.) were used as the efficacy test animals.
On the 15th day after the initiation of administration, the mice were killed by bleeding under ether anesthesia, subsequently tumors formed in the left lateral liver lobe were extracted, and the weight of the tumors was measured. The tumor growth rate (%) was calculated by the formula shown below, and the T/C value of each of the drug administered groups was calculated, while the average tumor weight of the non-drug administered control group was taken as 100%. This T/C value was used as an index of the antitumor effect. The statistical significance of the single drug administered groups was determined by Welch's two-tailed test, and the statistical significance of the effect synergizing action obtained by combined use was determined by the intersection union test based on Welch's two-tailed test.
Tumor growth rate (%)=T/C×100
T: Average tumor weight of a group with administration of the test compound
C: Average tumor weight of a group without administration of the test compound
On the 11th day after the transplantation, the animals were grouped into seven animals per group, and the treatment experiment was initiated. Doxorubicin was administered such that 10 mg/kg, which is the maximum tolerated dose for a mouse, was administered one time intravenously. Sorafenib was orally administered once a day for 14 consecutive days.
On the 11th day after the transplantation, the animals were grouped into seven animals per group, and the treatment experiment was initiated. Gemcitabine was administered such that 120 mg/kg, which is the maximum tolerated dose for a mouse, was administered intraperitoneally four times in total at an interval of 3 days. Sorafenib was orally administered once a day for 14 consecutive days.

## C[Si](C)(C)c1cc(C(=O)Nc2ccc(C(=O)O)cc2)cc([Si](C)(C)C)c1 [compound 1, 4-[[3,5-bis(trimethylsilyl)benzoyl]amino]benzoic acid]
Pharmacological Test Example 1, compound 1 single drug, 2 mg/kg orally once a day for 14 days
  T/C value (tumor growth rate): 51%

## COc1cccc2c1C(=O)c1c(O)c3c(c(O)c1C2=O)C[C@@](O)(C(=O)CO)C[C@@H]3O[C@H]1C[C@H](N)[C@H](O)[C@H](C)O1 [doxorubicin]
Comparative Example 1, doxorubicin single drug, 10 mg/kg one time intravenously
  T/C value (tumor growth rate): 70%

## Nc1ccn([C@@H]2O[C@H](CO)[C@@H](O)C2(F)F)c(=O)n1 [gemcitabine]
Comparative Example 2, gemcitabine single drug, 120 mg/kg intraperitoneally four times at an interval of 3 days
  T/C value (tumor growth rate): 47%

## CNC(=O)c1cc(Oc2ccc(NC(=O)Nc3ccc(Cl)c(C(F)(F)F)c3)cc2)ccn1 [sorafenib, N-(4-chloro-3-(trifluoromethyl)phenyl)-N′-(4-(2-(N-methylcarbamoyl)-4-pyridyloxy)phenyl)urea]
Comparative Example 1, sorafenib single drug, orally once a day for 14 days
  T/C value (tumor growth rate): 62%
Comparative Example 2, sorafenib single drug, orally once a day for 14 days
  T/C value (tumor growth rate): 60%
Pharmacological Test Example 1, sorafenib single drug, 10 mg/kg orally once a day for 14 days
  T/C value (tumor growth rate): 65%
